In patent US20260022142A1, “MACROCYCLIC IMMUNOMODULATORS” (Bristol-Myers Squibb Company, priority 2022, published 2026):
Bridge positions count the residues as written; N and C are the ends. Square brackets hold non-standard residues; d marks the D form. Peptide text beside a SMILES is read from it. * marks the point of attachment. Phe(4-CONH2) = NC(=O)c1ccc(C[C@H](N)C(=O)O)cc1; Bip = N[C@@H](Cc1ccc(-c2ccccc2)cc1)C(=O)O; Phe(3-Me) = Cc1cccc(C[C@H](N)C(=O)O)c1; His(τ-Me) = Cn1cnc(C[C@H](N)C(=O)O)c1; Val(3-OH) = CC(C)(O)[C@H](N)C(=O)O; Val(3-F) = CC(C)(F)[C@H](N)C(=O)O; Cha = N[C@@H](CC1CCCCC1)C(=O)O; Cit = NC(=O)NCCC[C@H](N)C(=O)O; Carboxymethyl = O=C(O)C*; Orn = NCCC[C@H](N)C(=O)O; Aun = NCCCCCCCCCCC(=O)O; Dab = NCC[C@H](N)C(=O)O; Dap = NC[C@H](N)C(=O)O; Ac3c = NC1(C(=O)O)CC1; Piv = CC(C)(C)C(=O)*

Molecular target: T1, PD-1/PD-L1 interaction (PE-labeled human PD-L1-Ig binding to Jurkat cell line over-expressing human PD-1) (Homo sapiens, UniProt Q15116)
T1 construct: expressed in transfected cells; host or cells: Jurkat
Test: Jurkat-PD-1 Cell Binding High-Content Screening Assay (CBA)
Type: cell-based
Conditions: Jurkat cell line over-expressing human PD-1; PE-labeled PD-L1-Ig 20 nM final; read-out: Jurkat hPD1-PDL1 IC50
Procedure, shortened: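 Jurkat-hPD-1 cells, DMEM/10% FCS; cpd 2 h 37° C; PE-PD-L1-Ig 20 nM final, 1 h; 4% PFA fix + Hoechst 33342, 3× dPBS wash; high-content imaging read-out.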

T1 sequence (Q15116 25-288): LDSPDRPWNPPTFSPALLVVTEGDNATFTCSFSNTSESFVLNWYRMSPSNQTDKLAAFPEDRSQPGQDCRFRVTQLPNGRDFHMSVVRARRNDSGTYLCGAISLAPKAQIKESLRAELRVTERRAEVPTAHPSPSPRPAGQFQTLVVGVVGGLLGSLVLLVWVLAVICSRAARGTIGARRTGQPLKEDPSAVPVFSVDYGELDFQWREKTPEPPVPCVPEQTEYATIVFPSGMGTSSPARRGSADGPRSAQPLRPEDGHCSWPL

SMILES | IC50 [µM]
Cc1cccc(C[C@@H]2NC(=O)[C@H](CC(=O)O)NC(=O)[C@H](Cc3ccc(OCC(=O)O)cc3)NC(=O)[C@H](CN)NC(=O)CSC[C@@H](C(=O)N[C@@H](CCN)C(=O)NCCCCCCCCCCC(=O)O)NC(=O)[C@H]([C@@H](C)O)NC(=O)[C@H](C(C)(C)O)NC(=O)[C@H](CC3CCCCC3)NC(=O)[C@H](CCN)NC(=O)[C@@H](CC(C)C)NC(=O)[C@H](CCCN)NC(=O)[C@H](CCCNC(N)=O)NC(=O)[C@H](Cc3ccc(-c4ccccc4)cc3)NC(=O)[C@H](C(C)C)NC2=O)c1 [Compound 2153] ({CH2CO}-[Dap]Y(Carboxymethyl)D[Phe(3-Me)]V[Bip][Cit][Orn][dL][Dab][Cha][Val(3-OH)]TC[Dab][Aun]-OH; thioether N-14) | 0.0234
Cc1cccc(C[C@@H]2NC(=O)[C@H](CC(=O)O)NC(=O)[C@H](Cc3ccc(OCC(=O)O)cc3)NC(=O)[C@H](Cc3ccc(C(N)=O)cc3)NC(=O)CSC[C@@H](C(=O)N[C@@H](CCN)C(=O)NCCCCCCCCCCC(=O)O)NC(=O)[C@H](CCC(N)=O)NC(=O)[C@H](C(C)(C)O)NC(=O)[C@H](CC3CCCCC3)NC(=O)[C@H](CCN)NC(=O)[C@@H](CC(C)C)NC(=O)[C@H](CCCN)NC(=O)[C@H](Cc3ccc(OCC(=O)O)cc3)NC(=O)[C@H](Cc3ccc(-c4ccccc4)cc3)NC(=O)[C@H](Cc3ccc(OCC(=O)O)cc3)NC2=O)c1 [Compound 2154] ({CH2CO}-[Phe(4-CONH2)]Y(Carboxymethyl)D[Phe(3-Me)]Y(Carboxymethyl)[Bip]Y(Carboxymethyl)[Orn][dL][Dab][Cha][Val(3-OH)]QC[Dab][Aun]-OH; thioether N-14) | 0.0092
Cc1cccc(C[C@@H]2NC(=O)[C@H](CC(=O)O)NC(=O)[C@H](Cc3ccc(OCC(=O)O)cc3)NC(=O)[C@H](Cc3cn(C)cn3)NC(=O)CSC[C@@H](C(=O)N[C@@H](CCN)C(=O)NCCCCCCCCCCC(=O)O)NC(=O)[C@H](CCC(N)=O)NC(=O)[C@H](C(C)(C)O)NC(=O)[C@H](CC3CCCCC3)NC(=O)[C@H](CCN)NC(=O)[C@@H](CC(C)C)NC(=O)[C@H](CCCN)NC(=O)[C@H](Cc3ccc(OCC(=O)O)cc3)NC(=O)[C@H](Cc3ccc(-c4ccccc4)cc3)NC(=O)[C@H](Cc3ccc(OCC(=O)O)cc3)NC2=O)c1 [Compound 2155] ({CH2CO}-[His(τ-Me)]Y(Carboxymethyl)D[Phe(3-Me)]Y(Carboxymethyl)[Bip]Y(Carboxymethyl)[Orn][dL][Dab][Cha][Val(3-OH)]QC[Dab][Aun]-OH; thioether N-14) | 0.0194
Cc1cccc(C[C@@H]2NC(=O)[C@H](CC(=O)O)NC(=O)[C@H](Cc3ccc(OCC(=O)O)cc3)NC(=O)[C@H](CCNC(=O)C(C)(C)C)NC(=O)CSC[C@@H](C(=O)N[C@@H](CCN)C(=O)NCCCCCCCCCCC(=O)O)NC(=O)[C@H](CCC(N)=O)NC(=O)[C@H](C(C)(C)F)NC(=O)[C@H](CC3CCCCC3)NC(=O)[C@H](CCN)NC(=O)[C@@H](CC(C)C)NC(=O)[C@H](CCCN)NC(=O)[C@H](Cc3ccc(OCC(=O)O)cc3)NC(=O)[C@H](Cc3ccc(-c4ccccc4)cc3)NC(=O)[C@H](Cc3ccc(OCC(=O)O)cc3)NC2=O)c1 [Compound 2156] ({CH2CO}-[Dab](Piv)Y(Carboxymethyl)D[Phe(3-Me)]Y(Carboxymethyl)[Bip]Y(Carboxymethyl)[Orn][dL][Dab][Cha][Val(3-F)]QC[Dab][Aun]-OH; thioether N-14) | 0.0098
Cc1cccc(C[C@@H]2NC(=O)[C@H](CC(=O)O)NC(=O)[C@H](Cc3ccc(OCC(=O)O)cc3)NC(=O)[C@H](CCCNC(=N)N)NC(=O)CSC[C@@H](C(=O)N[C@@H](CCN)C(=O)NCCCCCCCCCCC(=O)O)NC(=O)[C@H]([C@@H](C)O)NC(=O)[C@H](C(C)C)NC(=O)[C@H](CC3CCCCC3)NC(=O)[C@H](CCN)NC(=O)[C@@H](CC(C)C)NC(=O)[C@H](CCCN)NC(=O)[C@H](Cc3ccc(OCC(=O)O)cc3)NC(=O)[C@H](Cc3ccc(-c4ccccc4)cc3)NC(=O)[C@H](Cc3ccc(OCC(=O)O)cc3)NC2=O)c1 [Compound 2157] ({CH2CO}-RY(Carboxymethyl)D[Phe(3-Me)]Y(Carboxymethyl)[Bip]Y(Carboxymethyl)[Orn][dL][Dab][Cha]VTC[Dab][Aun]-OH; thioether N-14) | 0.0978
Cc1cccc(C[C@@H]2NC(=O)[C@H](CC(=O)O)NC(=O)[C@H](Cc3ccc(OCC(=O)O)cc3)NC(=O)[C@H](CN)NC(=O)CN[C@@H](C(=O)N[C@@H](CCN)C(=O)NCCCCCCCCCCC(=O)O)CNC(=O)[C@H]([C@@H](C)O)NC(=O)[C@H](C(C)C)NC(=O)[C@H](CC3CCCCC3)NC(=O)[C@H](CCN)NC(=O)[C@@H](CC(C)C)NC(=O)[C@H](CCCN)NC(=O)[C@H](CCCNC(N)=O)NC(=O)[C@H](Cc3ccc(-c4ccccc4)cc3)NC(=O)[C@H](C(C)C)NC2=O)c1 [Compound 2158] | 0.129
Cc1cccc(C[C@@H]2NC(=O)[C@H](CC(=O)O)NC(=O)[C@H](Cc3ccc(OCC(=O)O)cc3)NC(=O)[C@H](CCCNC(=N)N)NC(=O)CN(C)C[C@@H](C(=O)N[C@@H](CCN)C(=O)NCCCCCCCCCCC(=O)O)NC(=O)[C@H]([C@@H](C)O)NC(=O)[C@H](C(C)C)NC(=O)[C@H](CC3CCCCC3)NC(=O)[C@H](CCN)NC(=O)[C@@H](CC(C)C)NC(=O)[C@H](CCCN)NC(=O)[C@H](Cc3ccc(OCC(=O)O)cc3)NC(=O)[C@H](Cc3ccc(-c4ccccc4)cc3)NC(=O)[C@H](Cc3ccc(OCC(=O)O)cc3)NC2=O)c1 [Compound 2159] | 0.0961
Cc1cccc(C[C@@H]2NC(=O)[C@H](CC(=O)O)NC(=O)[C@H](Cc3ccc(OCC(=O)O)cc3)NC(=O)[C@H](CN)NC(=O)CNC[C@@H](C(=O)N[C@@H](CCN)C(=O)NCCCCCCCCCCC(=O)O)NC(=O)[C@H]([C@@H](C)O)NC(=O)[C@H](C(C)C)NC(=O)[C@H](CC3CCCCC3)NC(=O)[C@H](CCN)NC(=O)[C@@H](CC(C)C)NC(=O)[C@H](CCCN)NC(=O)[C@H](CCCNC(N)=O)NC(=O)[C@H](Cc3ccc(-c4ccccc4)cc3)NC(=O)[C@H](C(C)C)NC2=O)c1 [Compound 2160] | 0.0426
Cc1cccc(C[C@@H]2NC(=O)[C@H](CC(=O)O)NC(=O)[C@H](Cc3ccc(OCC(=O)O)cc3)NC(=O)[C@H](CCCNC(=N)N)NC(=O)CSC[C@@H](C(=O)NC3(C(=O)NCCCCCCCCCCC(=O)O)CC3)NC(=O)[C@H]([C@@H](C)O)NC(=O)[C@H](C(C)C)NC(=O)[C@H](CC3CCCCC3)NC(=O)[C@H](CCN)NC(=O)[C@@H](CC(C)C)NC(=O)[C@H](CCN)NC(=O)[C@H](Cc3ccc(OCC(=O)O)cc3)NC(=O)[C@H](Cc3ccc(-c4ccccc4)cc3)NC(=O)[C@H](Cc3ccc(OCC(=O)O)cc3)NC2=O)c1 [Compound 2161] ({CH2CO}-RY(Carboxymethyl)D[Phe(3-Me)]Y(Carboxymethyl)[Bip]Y(Carboxymethyl)[Dab][dL][Dab][Cha]VTC[Ac3c][Aun]-OH; thioether N-14) | 0.0129
Cc1cccc(C[C@@H]2NC(=O)[C@H](CC(=O)O)NC(=O)[C@H](Cc3ccc(OCC(=O)O)cc3)NC(=O)[C@H](CCCNC(=N)N)NC(=O)CSC[C@@H](C(=O)NC3(C(=O)NCCCCCCCCCCC(=O)O)CC3)NC(=O)[C@H]([C@@H](C)O)NC(=O)[C@H](C(C)C)NC(=O)[C@H](CC3CCCCC3)NC(=O)[C@H](CCN)NC(=O)[C@@H](CC(C)C)NC(=O)[C@H](CCCNC(N)=O)NC(=O)[C@H](Cc3ccc(OCC(=O)O)cc3)NC(=O)[C@H](Cc3ccc(-c4ccccc4)cc3)NC(=O)[C@H](Cc3ccc(OCC(=O)O)cc3)NC2=O)c1 [Compound 2162] ({CH2CO}-RY(Carboxymethyl)D[Phe(3-Me)]Y(Carboxymethyl)[Bip]Y(Carboxymethyl)[Cit][dL][Dab][Cha]VTC[Ac3c][Aun]-OH; thioether N-14) | 0.0129
